Results as given in paper PMC10349806 (Nature Communications, 2023).
“And” between values parts separate entries of the source, which are not always exact repeats. Identical values can stand only once. Like-named read-outs stand apart in the source and are kept apart here.

Legend:
PfCRT variant Y276A = biological target: T1, PfCRT variant Y276A (Plasmodium falciparum, UniProt Q9N623, A220S/I356T/K76T/M74I/N326S/N75E/Q271E/R371I/Y276A); assay: CQ uptake assay, oocytes expressing Y276A; assay type: cell-based
T1 sequence (Q9N623 1-424 M74I/N75E/K76T/A220S/Q271E/Y276A/N326S/I356T/R371I): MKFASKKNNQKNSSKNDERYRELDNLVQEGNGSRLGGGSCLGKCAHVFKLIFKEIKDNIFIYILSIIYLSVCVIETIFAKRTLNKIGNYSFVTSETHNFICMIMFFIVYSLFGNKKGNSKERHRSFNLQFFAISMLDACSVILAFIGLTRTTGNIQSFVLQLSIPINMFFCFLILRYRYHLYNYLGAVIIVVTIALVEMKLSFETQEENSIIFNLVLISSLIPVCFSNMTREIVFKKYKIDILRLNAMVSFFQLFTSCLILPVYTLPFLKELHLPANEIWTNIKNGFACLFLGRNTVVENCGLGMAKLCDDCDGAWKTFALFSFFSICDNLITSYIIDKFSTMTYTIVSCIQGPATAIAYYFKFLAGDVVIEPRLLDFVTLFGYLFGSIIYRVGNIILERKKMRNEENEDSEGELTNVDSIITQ
Experimental: (§1) Site-directed mutagenesis of PfCRT^Dd2 was performed as described using the megaprimer method with overlap extension[21],[54]. The primer pairs used are listed in Supplementary Table 6. Please note that a codon-optimized and oocyte-adapted version of PfCRT^Dd2 was used[22] (Supplementary Fig. 16). The resulting DNA fragment was cloned into the SP64T expression vector and verified by sequencing.
(§2) Oocytes were obtained as described previously. Briefly, adult (>2 years old) female X. laevis frogs (NASCO) were anesthetized in a cooled solution of ethyl 3-amino benzoate methanesulfonate (0.1%, w/v), followed by a surgical removal of parts of the ovary. The ovary lobes were carefully dissected and small pieces of oocytes were incubated in Ca^2+-free ND96 buffer (96 mM NaCl, 2 mM KCl, 1 mM MgCl2 buffered with 5 mM HEPES/NaOH, pH 7.5) supplemented with collagenase D (0.1%, w/v; Roche), BSA (0.5%, w/v), and 9 mm Na2HPO4 at 18 °C for 14-16 h while gentle shaking. After incubation, the oocytes were carefully washed several times with ND96 buffer (96 mM NaCl, 2 mM KCl, 1.8 mM CaCl2, 1 mM MgCl2 buffered with 5 mM HEPES/NaOH, pH 7.5) supplemented with 100 mg l^−1 gentamycin). Defolliculated and healthy-looking stage V-VI oocytes were manually selected for RNA microinjection. The RNA was generated as following: The codon-optimized sequences of PfCRT variants were cloned into the pSP64T expression vector. After vector linearization using the restriction endonucleases BamHI or SalI (New England Biolabs), transcription was performed using the in vitro SP6 mMessage mMachine Kit (Ambion)[34]. The obtained RNA was kept at −80 °C and diluted with nuclease-free water to a concentration of 0.6 μg μl^−1. Precision-bore glass capillary tubes (3.5-inch glass capillaries; Drummond Scientific Co.) were pulled on a vertical puller (P-87 Flaming/Brown micropipette puller, Sutter Instrument Co.), graduated, and placed on a microinjector (Nanoject II Auto-Nanoliter Injector, Drummond Scientific Co.). 50 nl of nuclease-free water alone (control oocytes) or 50 nl of 0.6 μg μl^−1 RNA were injected under stereomicroscopic control. Injected oocytes were incubated for 46–72 h at 18 °C with twice-daily buffer changes before usage in experiments.
(§3) Drug uptake assays were performed as described previously[21],[22],[24],[34]. […] The direction of radio-labeled drug transport is here from the mostly acidic extracellular solution (pH 4.5 or 6.0, as indicated) into the oocyte cytosol (pH ∼ 7.2), which corresponds to the efflux of drug from the acidic digestive vacuole (pH 5.2) into the parasite cytoplasm (pH 7.2). The topology of PfCRT in the oolemma is such that both the N- and C-terminus face the extracellular milieu[3],[22]. In the parasite, the N- and C-terminus face the lumen of the digestive vacuole. […] For determination of the amount of drug uptake for each oocyte, the reaction medium was removed and the oocytes were washed three times with 2 ml of ice-cold ND96 buffer. Each oocyte was individually transferred to a scintillation vial containing 5% sodium dodecyl sulfate (200 μl) for lysis. […] Oocytes that were injected with water instead of RNA were analyzed in parallel, representing the uptake of a drug by diffusion and/or endogenous permeation pathways. The resulting value represents the “background“ level of drug accumulation in oocytes (in-depth discussion in[22]). The specific PfCRT-mediated uptake was determined by subtracting the corresponding background value measured in water-injected oocytes from that of PfCRT-expressing oocytes. In all cases, at least three separate experiments were performed on oocytes from different frogs (biological replicate), and for each condition in an experiment, measurements were made from 10 oocytes per treatment. For pH 5.5, 6.0, and 6.5, ND96 was buffered with 5 mM MES/Tris base.

PfCRT variant E207H = assay: CQ uptake assay, oocytes expressing E207H; assay type: cell-based, Plasmodium falciparum; conditions: for Km: read-out: KM ± SEM
Experimental: as §1, §2, §3

[1] = Y276A, 50 µM CQ, 1 h, mean ± SEM
[2] = E207H, 50 µM CQ, 1 h, mean ± SEM

Q: For `CCN(CC)CCCC(C)Nc1ccnc2cc(Cl)ccc12` (stereo not drawn) [CQ, chloroquine], which “Activity at pH 4.5” value (PfCRT variant Y276A; [1]) is on record?
A: The value was 1.50 ± 0.12 pmol h-1 oocyte-1.

Q: And the “Activity at pH 6.0” value (PfCRT variant Y276A; [1])?
A: The value was 3.51 ± 0.35 pmol h-1 oocyte-1.

Q: And the R-value (PfCRT variant Y276A; Y276A, CQ transport at pH 4.5 / pH 6.0)?
A: Its R-value is 0.45 ± 0.09.

Q: And the “Y276A transport activity pH 4.5” value (PfCRT variant Y276A; pH 4.5, single replicates, Fig 1d left)?
A: Its value is 1.28 pmol oocyte-1 h-1 and 1.46 pmol oocyte-1 h-1.

Q: And the “Y276A R-value” (PfCRT variant Y276A; pH 4.5 vs pH 6.0, Fig 1d left)?
A: The value was 0.34 and 0.66 and 0.36.

Q: What about the “Y276A transport activity pH 6.0” value (PfCRT variant Y276A; pH 6.0, single replicates, Fig 1d left) of the same molecule?
A: Its value is 3.78 pmol oocyte-1 h-1 and 2.68 pmol oocyte-1 h-1 and 4.08 pmol oocyte-1 h-1.

Q: What about the E207H transport activity (PfCRT variant E207H; 10 μM CQ, pH 4.5) of the same molecule?
A: The E207H transport activity was 0.41 pmol oocyte-1 h-1 and 0.39 pmol oocyte-1 h-1 and 0.48 pmol oocyte-1 h-1.

Q: What about the E207H transport activity (PfCRT variant E207H; 10 μM CQ, pH 6.0) of the same molecule?
A: The E207H transport activity was 0.74 pmol oocyte-1 h-1 and 0.57 pmol oocyte-1 h-1 and 1.12 pmol oocyte-1 h-1 and 0.76 pmol oocyte-1 h-1.

Q: And the E207H transport activity (PfCRT variant E207H; 50 μM CQ, pH 4.5)?
A: Its E207H transport activity is 2.07 pmol oocyte-1 h-1 and 1.95 pmol oocyte-1 h-1 and 1.52 pmol oocyte-1 h-1.

Q: And the E207H transport activity (PfCRT variant E207H; 50 μM CQ, pH 6.0)?
A: The E207H transport activity was 4.71 pmol oocyte-1 h-1 and 5.16 pmol oocyte-1 h-1 and 4.70 pmol oocyte-1 h-1 and 3.98 pmol oocyte-1 h-1.

Q: And the E207H transport activity (PfCRT variant E207H; 100 μM CQ, pH 4.5)?
A: Its E207H transport activity is 4.26 pmol oocyte-1 h-1 and 4.32 pmol oocyte-1 h-1 and 4.33 pmol oocyte-1 h-1 and 5.17 pmol oocyte-1 h-1.

Q: And the E207H transport activity (PfCRT variant E207H; 100 μM CQ, pH 6.0)?
A: Its E207H transport activity is 8.51 pmol oocyte-1 h-1 and 8.56 pmol oocyte-1 h-1 and 9.98 pmol oocyte-1 h-1 and 9.68 pmol oocyte-1 h-1.

Q: What about the E207H transport activity (PfCRT variant E207H; 200 μM CQ, pH 4.5) of the same molecule?
A: The E207H transport activity was 6.09 pmol oocyte-1 h-1 and 7.31 pmol oocyte-1 h-1 and 7.21 pmol oocyte-1 h-1.

Q: What about the E207H transport activity (PfCRT variant E207H; 200 μM CQ, pH 6.0) of the same molecule?
A: Its E207H transport activity is 12.59 pmol oocyte-1 h-1 and 12.95 pmol oocyte-1 h-1 and 14.47 pmol oocyte-1 h-1 and 12.58 pmol oocyte-1 h-1.

Q: What about the E207H transport activity (PfCRT variant E207H; 300 μM CQ, pH 4.5) of the same molecule?
A: The E207H transport activity was 7.95 pmol oocyte-1 h-1 and 7.89 pmol oocyte-1 h-1 and 7.92 pmol oocyte-1 h-1 and 8.79 pmol oocyte-1 h-1.

Q: And the E207H transport activity (PfCRT variant E207H; 300 μM CQ, pH 6.0)?
A: Its E207H transport activity is 15.93 pmol oocyte-1 h-1 and 18.38 pmol oocyte-1 h-1 and 15.91 pmol oocyte-1 h-1 and 15.89 pmol oocyte-1 h-1.

Q: And the E207H transport activity (PfCRT variant E207H; 400 μM CQ, pH 4.5)?
A: The E207H transport activity was 8.22 pmol oocyte-1 h-1 and 9.32 pmol oocyte-1 h-1 and 10.99 pmol oocyte-1 h-1 and 9.19 pmol oocyte-1 h-1.

Q: What about the E207H transport activity (PfCRT variant E207H; 400 μM CQ, pH 6.0) of the same molecule?
A: Its E207H transport activity is 18.75 pmol oocyte-1 h-1 and 17.55 pmol oocyte-1 h-1 and 18.62 pmol oocyte-1 h-1.

Q: And the E207H transport activity (PfCRT variant E207H; 500 μM CQ, pH 4.5)?
A: Its E207H transport activity is 8.40 pmol oocyte-1 h-1 and 9.28 pmol oocyte-1 h-1 and 9.33 pmol oocyte-1 h-1 and 9.38 pmol oocyte-1 h-1.

Q: And the E207H transport activity (PfCRT variant E207H; 500 μM CQ, pH 6.0)?
A: The E207H transport activity was 19.42 pmol oocyte-1 h-1 and 18.73 pmol oocyte-1 h-1 and 21.15 pmol oocyte-1 h-1 and 18.43 pmol oocyte-1 h-1.

Q: What about the “E207H transport activity pH 4.5” value (PfCRT variant E207H; CQ uptake, oocytes expressing E207H, pH 4.5, individual replicates (Fig 6c)) of the same molecule?
A: The value was 2.07 pmol oocyte-1 h-1 and 1.95 pmol oocyte-1 h-1 and 1.52 pmol oocyte-1 h-1.

Q: What about the “E207H transport activity pH 5.0” value (PfCRT variant E207H; CQ uptake, oocytes expressing E207H, pH 5.0, individual replicates (Fig 6c)) of the same molecule?
A: The value was 2.16 pmol oocyte-1 h-1 and 3.19 pmol oocyte-1 h-1 and 2.08 pmol oocyte-1 h-1 and 1.56 pmol oocyte-1 h-1.

Q: And the “E207H transport activity pH 5.5” value (PfCRT variant E207H; CQ uptake, oocytes expressing E207H, pH 5.5, individual replicates (Fig 6c))?
A: Its value is 2.52 pmol oocyte-1 h-1 and 2.31 pmol oocyte-1 h-1 and 4.16 pmol oocyte-1 h-1 and 3.55 pmol oocyte-1 h-1.

Q: What about the “E207H transport activity pH 6.0” value (PfCRT variant E207H; CQ uptake, oocytes expressing E207H, pH 6.0, individual replicates (Fig 6c)) of the same molecule?
A: Its value is 4.71 pmol oocyte-1 h-1 and 5.16 pmol oocyte-1 h-1 and 4.70 pmol oocyte-1 h-1 and 3.98 pmol oocyte-1 h-1.

Q: And the “E207H transport activity pH 6.5” value (PfCRT variant E207H; CQ uptake, oocytes expressing E207H, pH 6.5, individual replicates (Fig 6c))?
A: Its value is 3.76 pmol oocyte-1 h-1 and 4.49 pmol oocyte-1 h-1 and 4.51 pmol oocyte-1 h-1 and 2.60 pmol oocyte-1 h-1.

Q: What about the “E207H transport activity pH 7.0” value (PfCRT variant E207H; CQ uptake, oocytes expressing E207H, pH 7.0, individual replicates (Fig 6c)) of the same molecule?
A: The value was 2.49 pmol oocyte-1 h-1 and 3.47 pmol oocyte-1 h-1 and 3.41 pmol oocyte-1 h-1 and 2.67 pmol oocyte-1 h-1.

Q: And the “Vmax ± SEM” value (PfCRT variant E207H; E207H, pH 4.5)?
A: Its value is 13 ± 1 pmol h^−1 oocyte ^−1.

Q: And the Km (PfCRT variant E207H; E207H, pH 4.5)?
A: Its Km is 230 ± 35 µM.

Q: What about the “Vmax ± SEM” value (PfCRT variant E207H; E207H, pH 6.0) of the same molecule?
A: Its value is 29 ± 1 pmol h^−1 oocyte ^−1.

Q: And the Km (PfCRT variant E207H; E207H, pH 6.0)?
A: Its Km is 230 ± 20 µM.

Q: What about the “Activity at pH 4.5” value (PfCRT variant E207H; [2]) of the same molecule?
A: The value was 1.99 ± 0.16 pmol h-1 oocyte-1.

Q: What about the “Activity at pH 6.0” value (PfCRT variant E207H; [2]) of the same molecule?
A: The value was 4.64 ± 0.21 pmol h-1 oocyte-1.

Q: And the R-value (PfCRT variant E207H; E207H, CQ transport at pH 4.5 / pH 6.0)?
A: Its R-value is 0.43 ± 0.03.

Q: What about the “E207H transport activity pH 4.5” value (PfCRT variant E207H; pH 4.5, individual replicates, Fig 6b) of the same molecule?
A: Its value is 2.07 pmol oocyte-1 h-1 and 1.95 pmol oocyte-1 h-1 and 1.52 pmol oocyte-1 h-1.

Q: What about the “E207H transport activity pH 6.0” value (PfCRT variant E207H; pH 6.0, individual replicates, Fig 6b) of the same molecule?
A: Its value is 4.71 pmol oocyte-1 h-1 and 5.16 pmol oocyte-1 h-1 and 4.70 pmol oocyte-1 h-1 and 3.98 pmol oocyte-1 h-1.

Q: What about the “E207H R-value” (PfCRT variant E207H; ratio of activity pH 4.5 / pH 6.0) of the same molecule?
A: Its value is 0.51 and 0.40 and 0.41 and 0.38.
